In patent publication US5185330A, “Penam derivatives and salts thereof, and antibacterial agent comprising the same” (Toyama Chemical Co., Ltd., priority 1989, dated 1993):
In brackets after ≈: the same amount, converted by molar mass. Like-named read-outs stand apart in the source and are kept apart here.

Legend:
[1] = tested on: E. coli TK-3; test: Antibacterial activity (MIC, agar dilution) against E. coli TK-3*; assay type: cell-based; conditions: Escherichia coli
Method: (§1) According to Chemotherapy, vol. 29, No. 1, pp. 76-79 (1981), bacterium was cultured in peptone broth manufactured by Eiken Kagaku K.K. at 37° C. for 20 hours to prepare a bacterial solution of 10^8 cells/ml, and one loopful of the bacterial solution was inoculated into Heart Infusion agar medium (manufactured by Eiken Kagaku K.K.) containing a drug, cultured at 37° C. for 20 hours, after which growth of bacterium was observed. The minimum concentration at which the growth of bacterium was prevented was indicated as MIC (μg/ml).
(§2) *means that β-lactamaseproducing bacteria.

[2] = tested on: S. marcescens W-8; test: Antibacterial activity (MIC, agar dilution) against S. marcescens W-8*; assay type: cell-based; conditions: Serratia marcescens
Method: as §1, §2

[3] = TK3, E. coli TK-3* (β-lactamase-producing bacteria), Heart Infusion agar, 37° C., 20 hours, one loopful of 10^8 cells/ml, read-out: MIC
[4] = W8, S. marcescens W-8* (β-lactamase-producing bacteria), Heart Infusion agar, 37° C., 20 hours, one loopful of 10^8 cells/ml, read-out: MIC

SMILES	MIC [1, 3]	MIC [2, 4]	MIC ([2]; W8, 20 h)	MIC ([1]; TK3, 20 h)
NC(=O)NN1CCN([C@]2(C(=O)O)CN3C(=O)[C@@H](NC(=O)C(C(=O)O)c4ccc(O)c(O)c4)[C@H]3S2)C1=O (some centres unmarked) [compound 24]	25 µg/mL (≈ 47.7 µM)	12.5 µg/mL (≈ 23.8 µM)	–	–
NC(=O)NN1CCN([C@]2(C(=O)O)CN3C(=O)[C@@H](NC(=O)C(C(=O)O)c4cc(O)c(O)cc4Cl)[C@H]3S2)C1=O (some centres unmarked) [compound 25]	6.25 µg/mL (≈ 11.2 µM)	12.5 µg/mL (≈ 22.4 µM)	–	–
O=C(N[C@@H]1C(=O)N2C[C@@](C(=O)O)(N3CCN(N=C4SCCS4)C3=O)S[C@H]12)C(c1ccccc1)S(=O)(=O)O (some centres unmarked) [compound 26]	≤ 0.1 µg/mL	–	0.39 µg/mL (≈ 0.664 µM)	–
CC(=O)Oc1ccc(C(C(=O)N[C@@H]2C(=O)N3C[C@@](C(=O)O)(N4CCN(N=C5SCCS5)C4=O)S[C@H]23)S(=O)(=O)O)cc1OC(C)=O (some centres unmarked) [compound 27]	1.56 µg/mL (≈ 2.22 µM)	–	–	–
CC(=O)Oc1ccc(C(C(=O)N[C@@H]2C(=O)N3C[C@@](C(=O)O)(N4CCN(NC(N)=O)C4=O)S[C@H]23)S(=O)(=O)O)cc1OC(C)=O (some centres unmarked) [compound 28]	6.25 µg/mL (≈ 9.7 µM)	–	3.13 µg/mL (≈ 4.86 µM)	–
CC(=O)Oc1ccc(C(C(=O)N[C@@H]2C(=O)N3C[C@@](C(=O)O)(N4CCN(NC(N)=O)C4=O)S[C@H]23)S(=O)(=O)O)cc1 (some centres unmarked) [compound 29]	6.25 µg/mL (≈ 10.7 µM)	3.13 µg/mL (≈ 5.34 µM)	–	–
NC(=O)NN1CCN([C@]2(C(=O)O)CN3C(=O)[C@@H](NC(=O)C(c4ccc(N)cc4)S(=O)(=O)O)[C@H]3S2)C1=O (some centres unmarked) [compound 30]	6.25 µg/mL (≈ 11.5 µM)	1.56 µg/mL (≈ 2.87 µM)	–	–
N#CC=CC=NN1CCN([C@]2(C(=O)O)CN3C(=O)[C@@H](NC(=O)C(C(=O)O)c4ccccc4)[C@H]3S2)C1=O (some centres unmarked) [compound 31]	0.2 µg/mL (≈ 0.39 µM)	0.1 µg/mL (≈ 0.195 µM)	–	–
NC(=O)C=NN1CCN([C@]2(C(=O)O)CN3C(=O)[C@@H](NC(=O)C(C(=O)O)c4ccccc4)[C@H]3S2)C1=O (some centres unmarked) [compound 32]	1.56 µg/mL (≈ 3.09 µM)	0.78 µg/mL (≈ 1.55 µM)	–	–
NC(=O)C=CC=NN1CCN([C@]2(C(=O)O)CN3C(=O)[C@@H](NC(=O)C(C(=O)O)c4ccccc4)[C@H]3S2)C1=O (some centres unmarked) [compound 33]	0.39 µg/mL (≈ 0.735 µM)	0.2 µg/mL (≈ 0.377 µM)	–	–
CC(=O)Oc1cc(Cl)c([C@H](C(=O)N[C@@H]2C(=O)N3C[C@@](C(=O)O)(N4CCN(N=CC=NNC(N)=O)C4=O)S[C@H]23)S(=O)(=O)O)cc1OC(C)=O [compound 34]	0.2 µg/mL (≈ 0.273 µM)	–	0.39 µg/mL (≈ 0.532 µM)	–
NC(=O)NN1CCN([C@]2(C(=O)O)CN3C(=O)[C@@H](NC(=O)[C@@H](c4ccc(N)cc4Cl)S(=O)(=O)O)[C@H]3S2)C1=O [compound 35]	1.56 µg/mL (≈ 2.7 µM)	–	0.78 µg/mL (≈ 1.35 µM)	–
NC(=O)Nc1ccc([C@H](C(=O)N[C@@H]2C(=O)N3C[C@@](C(=O)O)(N4CCN(NC(N)=O)C4=O)S[C@H]23)S(=O)(=O)O)c(Cl)c1 [compound 36]	12.5 µg/mL (≈ 20.1 µM)	1.56 µg/mL (≈ 2.51 µM)	–	–
NC(=O)NN1CCN([C@]2(C(=O)O)CN3C(=O)[C@@H](NC(=O)[C@@H](c4ccc(O)cc4Cl)S(=O)(=O)O)[C@H]3S2)C1=O [compound 37]	–	0.2 µg/mL (≈ 0.345 µM)	–	0.78 µg/mL (≈ 1.35 µM)
NC(=O)NN1CCN([C@]2(C(=O)O)CN3C(=O)[C@@H](NC(=O)[C@@H](c4ccc(O)cc4F)S(=O)(=O)O)[C@H]3S2)C1=O [compound 38]	1.56 µg/mL (≈ 2.77 µM)	–	0.78 µg/mL (≈ 1.39 µM)	–
NC(=O)NN1CCN([C@]2(C(=O)O)CN3C(=O)[C@@H](NC(=O)[C@@H](c4ccc(O)c(F)c4)S(=O)(=O)O)[C@H]3S2)C1=O [compound 39]	–	–	0.78 µg/mL (≈ 1.39 µM)	3.13 µg/mL (≈ 5.56 µM)
NC(=O)NN1CCN([C@]2(C(=O)O)CN3C(=O)[C@@H](NC(=O)[C@@H](c4ccc(O)cc4)S(=O)(=O)O)[C@H]3S2)C1=O [compound 40]	–	–	0.78 µg/mL (≈ 1.43 µM)	3.13 µg/mL (≈ 5.75 µM)
NC(=O)NN1CCN([C@]2(C(=O)O)CN3C(=O)[C@@H](NC(=O)[C@@H](c4ccc(O)c(O)c4)S(=O)(=O)O)[C@H]3S2)C1=O [compound 41]	–	1.56 µg/mL (≈ 2.78 µM)	–	3.13 µg/mL (≈ 5.58 µM)
NC(=O)NN1CCN([C@]2(C(=O)O)CN3C(=O)[C@@H](NC(=O)[C@@H](c4cc(O)c(O)cc4Cl)S(=O)(=O)O)[C@H]3S2)C1=O [compound 42]	0.2 µg/mL (≈ 0.336 µM)	–	0.39 µg/mL (≈ 0.655 µM)	–
NC(=O)NN=CC=NN1CCN([C@]2(C(=O)O)CN3C(=O)[C@@H](NC(=O)[C@@H](c4cc(O)c(O)cc4Cl)S(=O)(=O)O)[C@H]3S2)C1=O [compound 43]	0.2 µg/mL (≈ 0.308 µM)	0.2 µg/mL (≈ 0.308 µM)	–	–
NS(=O)(=O)NN1CCN([C@]2(C(=O)O)CN3C(=O)[C@@H](NC(=O)C(C(=O)O)c4ccc(O)cc4)[C@H]3S2)C1=O (some centres unmarked) [compound 44]	6.25 µg/mL (≈ 11.5 µM)	6.25 µg/mL (≈ 11.5 µM)	–	–
C=CC(=O)NN1CCN([C@]2(C(=O)O)CN3C(=O)[C@@H](NC(=O)C(C(=O)O)c4ccc(O)cc4)[C@H]3S2)C1=O (some centres unmarked) [compound 45]	–	–	3.13 µg/mL (≈ 6.03 µM)	3.13 µg/mL (≈ 6.03 µM)
Cn1cc(C=NN2CCN([C@]3(C(=O)O)CN4C(=O)[C@@H](NC(=O)C(C(=O)O)c5ccccc5)[C@H]4S3)C2=O)nn1 (some centres unmarked) [compound 46]	12.5 µg/mL (≈ 23 µM)	6.25 µg/mL (≈ 11.5 µM)	–	–
CON=C(C(=O)N[C@@H]1C(=O)N2C[C@@](C(=O)O)(N3CCN(N=C4SCCS4)C3=O)S[C@H]12)c1csc(N)n1 [compound 47]	–	6.25 µg/mL (≈ 10.9 µM)	–	0.78 µg/mL (≈ 1.36 µM)
